# Measurements: patent US11529347B2, “SHP2 phosphatase inhibitors and methods of use thereof” (Relay Therapeutics, Inc., priority 2016, dated 2022)
# Target: SHP2 (Homo sapiens (Human), UniProt Q06124)
# Assay: SHP2 Allosteric Inhibition Assay (DiFMUP prompt fluorescence)
# Type: biochemical
# Conditions: 0.25 nM SHP2 activated with 0.5 μM peptide IRS1_pY1172(dPEG8)pY1222; substrate DiFMUP 100 μM
# Source text: SHP2 is allosterically activated through binding of bis-tyrosyl-phosphorylated peptides to its Src Homology 2 (SH2) domains. The latter activation step leads to the release of the auto-inhibitory interface of SHP2, which in turn renders the SHP2 protein tyrosine phosphatase (PTP) active and available for substrate recognition and reaction catalysis. The catalytic activity of SHP2 was monitored using the surrogate substrate DiFMUP in a prompt fluorescence assay format.
# The inhibitor dose response curves were analyzed using normalized IC50 regression curve fitting with control based normalization.
row,IC50,SMILES
1,< 10 µM,CC1(N)CCN(c2cnc3c(-c4ccccc4Cl)n[nH]c3n2)CC1 [Compound 6]
2,< 10 µM,N[C@H]1CC12CCN(c1cnc3c(-c4ccccc4Cl)n[nH]c3n1)CC2 [Compound 9]
3,< 10 µM,CC1(CN)CCN(c2cnc3c(-c4cccc(Cl)c4Cl)n[nH]c3n2)CC1 [Compound 10]
4,10 to 100 µM,O=C1NCC2(CCN(c3cnc4c(-c5ccccc5Cl)n[nH]c4n3)CC2)N1 [Compound 11]
5,< 10 µM,NC(=O)C1(N)CCN(c2cnc3c(-c4cccc(Cl)c4)n[nH]c3n2)CC1 [Compound 12]
6,< 10 µM,CC1(CN)CCCN(c2cnc3c(-c4ccccc4Cl)n[nH]c3n2)CC1 (stereo not shown) [Compound 13]
7,10 to 100 µM,CC(C)(N)C1CCN(c2cnc3c(-c4ccccc4Cl)n[nH]c3n2)CC1 [Compound 14]
8,< 10 µM,CC1(CN)CCN(c2cnc3c(-c4ccccc4)n[nH]c3n2)CC1 [Compound 15]
9,< 10 µM,N[C@@H]1CCCC12CCN(c1cnc3c(-c4ccccc4Cl)n[nH]c3n1)CC2 [Compound 16]
10,< 10 µM,CC1(N)CCN(c2cnc3c(-c4ccc(Cl)cc4)n[nH]c3n2)CC1 [Compound 17]
11,< 10 µM,NC1CC12CCN(c1cnc3c(-c4ccccc4Cl)n[nH]c3n1)CC2 (stereo not shown) [Compound 18]
12,< 10 µM,CC1(CN)CCN(c2cnc3c(-c4ccncc4)n[nH]c3n2)CC1 [Compound 19]
13,< 10 µM,NCC1(O)CCCN(c2cnc3c(-c4ccccc4Cl)n[nH]c3n2)CC1 (stereo not shown) [Compound 20]
14,10 to 100 µM,CC1(CN)CCN(c2cnc3c(-c4ncccc4Cl)n[nH]c3n2)CC1 [Compound 22]
15,< 10 µM,NCC1(F)CCN(c2cnc3c(-c4ccccc4Cl)n[nH]c3n2)CC1 [Compound 24]
16,< 10 µM,NCC1(O)CCN(c2cnc3c(-c4cccc(Cl)c4)n[nH]c3n2)CC1 [Compound 25]
17,< 10 µM,N[C@H]1CCC12CCN(c1cnc3c(-c4ccccc4Cl)n[nH]c3n1)CC2 [Compound 26]
18,< 10 µM,NCC1CCN(c2cnc3c(-c4cccc(Cl)c4)n[nH]c3n2)C1 (stereo not shown) [Compound 27]
19,< 10 µM,NC1CCC12CCN(c1cnc3c(-c4ccccc4Cl)n[nH]c3n1)CC2 (stereo not shown) [Compound 28]
20,< 10 µM,CC1(CN)CCN(c2cnc3c(-c4ccc(Cl)cc4)n[nH]c3n2)CC1 [Compound 29]
21,< 10 µM,NC(CO)C1CCN(c2cnc3c(-c4ccccc4Cl)n[nH]c3n2)CC1 (stereo not shown) [Compound 30]
22,< 10 µM,CC1(N)CCN(c2cnc3c(-c4cccc(Cl)c4)n[nH]c3n2)CC1 [Compound 31]
23,< 10 µM,COC1(CN)CCN(c2cnc3c(-c4ccccc4Cl)n[nH]c3n2)CC1 [Compound 32]
24,< 10 µM,N[C@H]1CCN(c2cnc3c(-c4ccccc4Cl)n[nH]c3n2)C[C@@H]1O [Compound 33]

row,IC50,SMILES
1,< 10 µM,CC1(CN)CCN(c2cnc3c(-c4cccc(Cl)c4Br)n[nH]c3n2)CC1 [Compound 34]
2,< 10 µM,N[C@H]1CCCC12CCN(c1cnc3c(-c4ccccc4Cl)n[nH]c3n1)CC2 [Compound 35]
3,10 to 100 µM,CNCC1(C)CCN(c2cnc3c(-c4ccccc4Cl)n[nH]c3n2)CC1 [Compound 36]
4,10 to 100 µM,N[C@@H]1CCC12CCN(c1cnc3c(-c4ccccc4Cl)n[nH]c3n1)CC2 [Compound 37]
5,< 10 µM,NC1CCN(c2cnc3c(-c4ccccc4Cl)n[nH]c3n2)CC1 [Compound 38]
6,< 10 µM,COc1cccc(-c2n[nH]c3nc(N4CCC(C)(CN)CC4)cnc23)c1Cl [Compound 39]
7,< 10 µM,NCC1CCCN(c2cnc3c(-c4ccccc4Cl)n[nH]c3n2)CC1 (stereo not shown) [Compound 40]
8,< 10 µM,Clc1ccccc1-c1n[nH]c2nc(N3CCC4(CCCN4)CC3)cnc12 [Compound 41]
9,< 10 µM,COCC1(CN)CCN(c2cnc3c(-c4ccccc4Cl)n[nH]c3n2)CC1 [Compound 42]
10,< 10 µM,CC1(CN)CCN(c2cnc3c(-c4ccccc4Cl)n[nH]c3n2)CC1 [Compound 43]
11,< 10 µM,Clc1ccccc1-c1n[nH]c2nc(N3CC4CNCC4C3)cnc12 (stereo not shown) [Compound 44]
12,> 100 µM,Clc1cccc(-c2n[nH]c3nc(N4CCCCC4)cnc23)c1Cl [Compound 45]
13,< 10 µM,NCC1(N)CCN(c2cnc3c(-c4ccccc4Cl)n[nH]c3n2)CC1 [Compound 46]
14,< 10 µM,CC(N)C1CCN(c2cnc3c(-c4ccccc4Cl)n[nH]c3n2)CC1 (stereo not shown) [Compound 47]
15,< 10 µM,CC1(CN)CCN(c2cnc3c(-c4cccc(Cl)c4F)n[nH]c3n2)CC1 [Compound 48]
16,10 to 100 µM,N[C@@H]1CC12CCN(c1cnc3c(-c4ccccc4Cl)n[nH]c3n1)CC2 [Compound 49]
17,< 10 µM,CC1(CN)CCN(c2cnc3c(-c4cccc(Cl)c4)n[nH]c3n2)CC1 [Compound 50]
18,< 10 µM,NCC1(CO)CCN(c2cnc3c(-c4ccccc4Cl)n[nH]c3n2)CC1 [Compound 51]
19,< 10 µM,NCC1(O)CCN(c2cnc3c(-c4ccccc4Cl)n[nH]c3n2)CC1 [Compound 52]
20,10 to 100 µM,O=C1NCC2(CCCN(c3cnc4c(-c5ccccc5Cl)n[nH]c4n3)CC2)O1 (stereo not shown) [Compound 53]
21,< 10 µM,COc1ccccc1-c1n[nH]c2nc(N3CCC(C)(CN)CC3)cnc12 [Compound 54]
22,10 to 100 µM,Clc1ccccc1-c1n[nH]c2nc(N3CCC4(CCNC4)C3)cnc12 (stereo not shown) [Compound 55]
23,< 10 µM,NC1(CO)CCN(c2cnc3c(-c4ccccc4Cl)n[nH]c3n2)CC1 [Compound 56]
24,< 10 µM,N[C@@H]1[C@H]2CN(c3cnc4c(-c5cccc(Cl)c5)n[nH]c4n3)C[C@@H]12 [Compound F21]

row,SMILES,IC50
1,Clc1ccccc1-c1n[nH]c2nc(N3C4CCCC3CC4)cnc12 [Compound 8],10 to 100 µM
